Measured values: paper PMC9329436, “Optimization of the 4-anilinoquin(az)oline scaffold as epidermal growth factor receptor (EGFR) inhibitors for chordoma utilizing a toxicology profiling assay platform” (Scientific Reports, 2022)
Like-named read-outs stand apart in the source and are kept apart here.

What was measured:
Type in all cases: biochemical
[1] = molecular target: 320 wild-type protein kinases (Homo sapiens, UniProt P49840); conditions: GSK3-alpha, singlicate
Excerpt: (§1) Table S4. Profiling of two compounds at two concentrations against 320 wild-type protein kinases; singlicate measurement; Residual activities (% of control).

[2] = molecular target: 320 wild-type protein kinases (Homo sapiens, UniProt P22607); conditions: singlicate
Excerpt: as §1

[3] = molecular target: 320 wild-type protein kinases (Homo sapiens, UniProt Q13554); conditions: CAMK2B, singlicate
Excerpt: as §1

[4] = molecular target: 320 wild-type protein kinases (Homo sapiens, UniProt Q04759); conditions: PKC-theta, singlicate
Excerpt: as §1

[5] = molecular target: T1, 320 wild-type protein kinases (Homo sapiens, UniProt P51813); conditions: BMX, singlicate
T1 sequence (P51813 1-675): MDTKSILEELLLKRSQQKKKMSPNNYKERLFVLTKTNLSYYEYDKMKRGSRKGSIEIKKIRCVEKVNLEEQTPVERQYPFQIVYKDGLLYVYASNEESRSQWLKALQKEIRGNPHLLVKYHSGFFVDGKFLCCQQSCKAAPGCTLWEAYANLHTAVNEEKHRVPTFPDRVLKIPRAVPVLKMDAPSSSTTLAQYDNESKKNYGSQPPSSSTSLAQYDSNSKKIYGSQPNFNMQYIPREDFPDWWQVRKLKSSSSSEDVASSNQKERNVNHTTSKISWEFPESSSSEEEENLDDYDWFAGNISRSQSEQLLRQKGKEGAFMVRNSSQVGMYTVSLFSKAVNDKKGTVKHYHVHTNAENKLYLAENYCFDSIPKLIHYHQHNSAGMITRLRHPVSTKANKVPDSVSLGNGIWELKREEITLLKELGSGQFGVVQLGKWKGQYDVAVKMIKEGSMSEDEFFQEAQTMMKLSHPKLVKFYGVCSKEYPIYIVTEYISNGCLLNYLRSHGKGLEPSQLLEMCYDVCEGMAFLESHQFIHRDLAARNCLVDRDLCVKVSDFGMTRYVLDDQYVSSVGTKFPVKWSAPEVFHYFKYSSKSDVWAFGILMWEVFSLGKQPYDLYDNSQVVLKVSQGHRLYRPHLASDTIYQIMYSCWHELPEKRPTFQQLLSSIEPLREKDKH
Excerpt: as §1

[6] = molecular target: 320 wild-type protein kinases (Homo sapiens, UniProt Q8TDX7); conditions: singlicate
Excerpt: as §1

[7] = molecular target: 320 wild-type protein kinases (Homo sapiens, UniProt Q9P286); conditions: singlicate
Excerpt: as §1

[8] = molecular target: T2, 320 wild-type protein kinases (Homo sapiens, UniProt Q96L34); conditions: singlicate
T2 sequence (Q96L34 1-752): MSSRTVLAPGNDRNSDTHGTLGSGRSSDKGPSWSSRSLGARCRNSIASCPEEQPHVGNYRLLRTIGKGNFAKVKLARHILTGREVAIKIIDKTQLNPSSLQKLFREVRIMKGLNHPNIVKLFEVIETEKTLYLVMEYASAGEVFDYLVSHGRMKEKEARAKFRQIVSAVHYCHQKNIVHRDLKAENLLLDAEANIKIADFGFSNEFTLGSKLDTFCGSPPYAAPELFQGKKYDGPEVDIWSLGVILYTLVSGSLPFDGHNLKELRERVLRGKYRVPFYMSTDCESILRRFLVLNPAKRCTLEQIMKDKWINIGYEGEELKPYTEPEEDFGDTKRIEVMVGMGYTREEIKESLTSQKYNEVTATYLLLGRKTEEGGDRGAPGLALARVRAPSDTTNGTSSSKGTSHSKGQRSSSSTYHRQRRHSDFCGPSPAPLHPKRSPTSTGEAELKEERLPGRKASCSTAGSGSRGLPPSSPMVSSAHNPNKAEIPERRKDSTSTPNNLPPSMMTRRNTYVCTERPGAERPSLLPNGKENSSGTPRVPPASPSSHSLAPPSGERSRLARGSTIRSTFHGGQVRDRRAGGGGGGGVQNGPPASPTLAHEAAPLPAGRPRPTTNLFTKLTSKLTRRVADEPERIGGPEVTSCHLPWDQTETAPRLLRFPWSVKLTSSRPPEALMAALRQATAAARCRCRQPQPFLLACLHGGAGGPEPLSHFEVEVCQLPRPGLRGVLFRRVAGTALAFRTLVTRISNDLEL
Excerpt: as §1

[9] = molecular target: 320 wild-type protein kinases (Homo sapiens, UniProt Q9UIK4); conditions: singlicate
Excerpt: as §1

[10] = molecular target: T3, 320 wild-type protein kinases (Homo sapiens, UniProt Q9BXA7); conditions: kinase TSSK1, singlicate
T3 sequence (Q9BXA7 1-367): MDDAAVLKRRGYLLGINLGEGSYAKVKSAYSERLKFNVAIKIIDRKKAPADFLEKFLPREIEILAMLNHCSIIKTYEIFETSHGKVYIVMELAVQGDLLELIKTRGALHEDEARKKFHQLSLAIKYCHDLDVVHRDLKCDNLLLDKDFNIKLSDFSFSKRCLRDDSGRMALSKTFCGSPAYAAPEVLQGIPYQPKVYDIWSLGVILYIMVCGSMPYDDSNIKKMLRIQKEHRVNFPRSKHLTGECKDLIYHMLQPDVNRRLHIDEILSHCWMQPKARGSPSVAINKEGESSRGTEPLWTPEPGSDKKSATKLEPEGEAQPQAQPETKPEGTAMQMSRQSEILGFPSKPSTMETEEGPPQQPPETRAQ
Excerpt: as §1

320 wild-type protein kinases (Homo sapiens, UniProt Q8TDX7), sequence (Q8TDX7 whole entry): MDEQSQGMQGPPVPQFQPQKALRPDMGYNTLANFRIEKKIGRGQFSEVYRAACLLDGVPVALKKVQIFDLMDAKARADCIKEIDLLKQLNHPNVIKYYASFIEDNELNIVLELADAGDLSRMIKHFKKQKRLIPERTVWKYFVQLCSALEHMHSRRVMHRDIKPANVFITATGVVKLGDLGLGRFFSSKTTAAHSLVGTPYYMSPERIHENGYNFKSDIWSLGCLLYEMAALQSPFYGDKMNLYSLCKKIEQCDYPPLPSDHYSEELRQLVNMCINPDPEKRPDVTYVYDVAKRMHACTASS
320 wild-type protein kinases (Homo sapiens, UniProt Q13554), sequence (Q13554 whole entry): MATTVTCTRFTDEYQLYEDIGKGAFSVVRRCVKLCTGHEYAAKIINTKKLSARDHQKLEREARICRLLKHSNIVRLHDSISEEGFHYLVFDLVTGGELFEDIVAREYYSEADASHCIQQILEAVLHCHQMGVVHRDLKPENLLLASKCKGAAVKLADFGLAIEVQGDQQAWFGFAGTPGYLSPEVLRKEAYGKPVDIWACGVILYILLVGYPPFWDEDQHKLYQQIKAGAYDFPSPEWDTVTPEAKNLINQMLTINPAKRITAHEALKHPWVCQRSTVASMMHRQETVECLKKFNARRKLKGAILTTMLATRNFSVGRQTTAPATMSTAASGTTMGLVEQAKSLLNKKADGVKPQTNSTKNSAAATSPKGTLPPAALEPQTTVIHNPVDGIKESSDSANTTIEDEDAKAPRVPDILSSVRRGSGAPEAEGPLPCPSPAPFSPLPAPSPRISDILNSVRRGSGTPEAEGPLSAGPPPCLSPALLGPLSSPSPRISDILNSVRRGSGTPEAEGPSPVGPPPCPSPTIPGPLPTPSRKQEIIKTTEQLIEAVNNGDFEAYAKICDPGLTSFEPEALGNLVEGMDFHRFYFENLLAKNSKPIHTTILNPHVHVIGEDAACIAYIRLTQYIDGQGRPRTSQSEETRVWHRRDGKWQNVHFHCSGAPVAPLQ
320 wild-type protein kinases (Homo sapiens, UniProt P22607), sequence (P22607 23-806): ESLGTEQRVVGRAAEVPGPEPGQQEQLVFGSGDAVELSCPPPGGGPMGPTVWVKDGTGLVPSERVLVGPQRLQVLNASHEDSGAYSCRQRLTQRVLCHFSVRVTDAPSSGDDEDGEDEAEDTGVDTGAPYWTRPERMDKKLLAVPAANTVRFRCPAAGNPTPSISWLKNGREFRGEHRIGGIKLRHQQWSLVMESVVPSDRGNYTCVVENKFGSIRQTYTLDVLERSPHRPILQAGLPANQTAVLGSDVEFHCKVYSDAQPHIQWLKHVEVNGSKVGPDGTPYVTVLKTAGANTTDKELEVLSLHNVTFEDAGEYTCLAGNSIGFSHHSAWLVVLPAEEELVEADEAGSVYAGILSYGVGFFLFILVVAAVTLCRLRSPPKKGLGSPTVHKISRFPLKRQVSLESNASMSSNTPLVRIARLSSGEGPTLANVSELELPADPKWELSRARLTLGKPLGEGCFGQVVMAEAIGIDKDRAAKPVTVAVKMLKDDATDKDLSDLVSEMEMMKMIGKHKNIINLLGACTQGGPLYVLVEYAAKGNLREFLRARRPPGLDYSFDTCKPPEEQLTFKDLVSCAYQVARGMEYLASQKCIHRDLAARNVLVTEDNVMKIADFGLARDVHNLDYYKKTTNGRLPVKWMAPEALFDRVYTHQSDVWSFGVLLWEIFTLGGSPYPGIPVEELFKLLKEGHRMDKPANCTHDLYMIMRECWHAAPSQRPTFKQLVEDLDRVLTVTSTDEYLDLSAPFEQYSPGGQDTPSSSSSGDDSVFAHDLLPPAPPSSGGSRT
320 wild-type protein kinases (Homo sapiens, UniProt Q04759), sequence (Q04759 whole entry): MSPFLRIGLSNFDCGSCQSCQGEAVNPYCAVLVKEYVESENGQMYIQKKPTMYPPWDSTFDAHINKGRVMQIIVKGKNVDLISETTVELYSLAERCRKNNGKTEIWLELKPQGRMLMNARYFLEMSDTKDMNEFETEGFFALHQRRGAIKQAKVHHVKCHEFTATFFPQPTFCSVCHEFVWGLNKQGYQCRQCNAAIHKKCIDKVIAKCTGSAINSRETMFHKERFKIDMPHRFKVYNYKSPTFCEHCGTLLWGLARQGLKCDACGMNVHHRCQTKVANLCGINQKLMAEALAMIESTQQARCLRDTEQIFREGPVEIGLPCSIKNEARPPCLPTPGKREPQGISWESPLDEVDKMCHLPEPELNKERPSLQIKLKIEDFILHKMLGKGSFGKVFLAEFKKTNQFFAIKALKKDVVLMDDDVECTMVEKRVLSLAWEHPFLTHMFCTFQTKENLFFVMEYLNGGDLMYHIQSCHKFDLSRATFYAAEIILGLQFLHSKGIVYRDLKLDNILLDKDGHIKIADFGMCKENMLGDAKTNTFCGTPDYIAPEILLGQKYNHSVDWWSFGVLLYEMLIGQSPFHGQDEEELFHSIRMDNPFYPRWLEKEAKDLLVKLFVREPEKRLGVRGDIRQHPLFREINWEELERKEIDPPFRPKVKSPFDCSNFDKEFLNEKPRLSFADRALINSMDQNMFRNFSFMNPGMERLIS
320 wild-type protein kinases (Homo sapiens, UniProt Q9UIK4), sequence (Q9UIK4 whole entry): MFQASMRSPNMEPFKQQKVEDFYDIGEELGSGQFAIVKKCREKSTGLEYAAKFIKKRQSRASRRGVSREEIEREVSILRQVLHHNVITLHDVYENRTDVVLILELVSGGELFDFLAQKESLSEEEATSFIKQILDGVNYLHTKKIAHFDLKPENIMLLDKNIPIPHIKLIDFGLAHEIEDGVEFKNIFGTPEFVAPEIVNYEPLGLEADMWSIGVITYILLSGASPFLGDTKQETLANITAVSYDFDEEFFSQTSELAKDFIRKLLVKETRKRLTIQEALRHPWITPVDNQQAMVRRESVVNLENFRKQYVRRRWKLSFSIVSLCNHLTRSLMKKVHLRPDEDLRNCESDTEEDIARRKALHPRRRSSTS
320 wild-type protein kinases (Homo sapiens, UniProt P49840), sequence (P49840 whole entry): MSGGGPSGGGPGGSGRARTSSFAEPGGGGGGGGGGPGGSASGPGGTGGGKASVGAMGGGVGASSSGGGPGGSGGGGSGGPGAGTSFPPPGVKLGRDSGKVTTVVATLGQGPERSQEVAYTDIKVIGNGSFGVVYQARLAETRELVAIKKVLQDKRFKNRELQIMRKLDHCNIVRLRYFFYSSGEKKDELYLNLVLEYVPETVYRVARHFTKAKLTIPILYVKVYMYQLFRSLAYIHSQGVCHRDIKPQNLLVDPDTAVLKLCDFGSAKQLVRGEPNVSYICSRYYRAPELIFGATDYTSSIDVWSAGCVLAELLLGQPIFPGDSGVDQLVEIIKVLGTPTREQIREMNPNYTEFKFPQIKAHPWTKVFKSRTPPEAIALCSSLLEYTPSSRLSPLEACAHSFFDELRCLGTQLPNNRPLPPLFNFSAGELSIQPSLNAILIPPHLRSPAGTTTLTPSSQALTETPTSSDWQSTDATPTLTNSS
320 wild-type protein kinases (Homo sapiens, UniProt Q9P286), sequence (Q9P286 whole entry): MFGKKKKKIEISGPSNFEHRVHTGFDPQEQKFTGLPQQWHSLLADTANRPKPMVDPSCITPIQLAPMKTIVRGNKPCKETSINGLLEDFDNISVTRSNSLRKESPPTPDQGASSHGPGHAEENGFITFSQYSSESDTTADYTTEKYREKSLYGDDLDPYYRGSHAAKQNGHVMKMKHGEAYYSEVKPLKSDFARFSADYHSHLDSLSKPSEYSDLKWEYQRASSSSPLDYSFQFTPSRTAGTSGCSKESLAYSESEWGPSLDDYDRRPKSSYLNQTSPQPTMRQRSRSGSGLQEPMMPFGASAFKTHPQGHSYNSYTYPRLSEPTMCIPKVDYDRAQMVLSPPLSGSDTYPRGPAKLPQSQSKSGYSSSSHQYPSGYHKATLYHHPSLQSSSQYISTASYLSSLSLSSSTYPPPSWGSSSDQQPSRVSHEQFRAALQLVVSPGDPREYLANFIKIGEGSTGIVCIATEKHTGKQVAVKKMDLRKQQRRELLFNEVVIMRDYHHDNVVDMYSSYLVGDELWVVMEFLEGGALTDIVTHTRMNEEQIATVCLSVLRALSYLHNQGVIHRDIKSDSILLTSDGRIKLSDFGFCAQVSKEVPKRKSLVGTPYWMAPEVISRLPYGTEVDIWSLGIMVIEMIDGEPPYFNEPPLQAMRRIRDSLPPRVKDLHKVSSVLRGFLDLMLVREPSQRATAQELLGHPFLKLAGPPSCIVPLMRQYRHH

| Structure (SMILES) | Residual activity ([1]; 1.0E-06 M) | Residual activity ([1]; 1.0E-07 M) | Residual activity ([2]; FGF-R3, 1.0E-06 M) | Residual activity ([2]; FGF-R3, 1.0E-07 M) | Residual activity ([3]; 1.0E-06 M) | Residual activity ([3]; 1.0E-07 M) | Residual activity ([4]; 1.0E-06 M) | Residual activity ([4]; 1.0E-07 M) | Residual activity ([5]; 1.0E-06 M) | Residual activity ([5]; 1.0E-07 M) | Residual activity ([6]; NEK7, 1.0E-06 M) | Residual activity ([6]; NEK7, 1.0E-07 M) | Residual activity ([7]; PAK7, 1.0E-06 M) | Residual activity ([7]; PAK7, 1.0E-07 M) | Residual activity ([8]; MARK4, 1.0E-06 M) | Residual activity ([8]; MARK4, 1.0E-07 M) | Residual activity ([9]; DAPK2, 1.0E-06 M) | Residual activity ([9]; DAPK2, 1.0E-07 M) | Residual activity, TSSK1 ([10]; assay conc. 1.0E-06 M) | Residual activity, TSSK1 ([10]; assay conc. 1.0E-07 M) |
| --- | --- | --- | --- | --- | --- | --- | --- | --- | --- | --- | --- | --- | --- | --- | --- | --- | --- | --- | --- | --- |
| C#Cc1cc(Nc2ncnc3cc(I)ccc23)ccc1Cl [Compound 41] | 143 % of control | 148 % of control | 93 % of control | 99 % of control | 86 % of control | 84 % of control | 102 % of control | 101 % of control | 77 % of control | 86 % of control | 101 % of control | 129 % of control | 81 % of control | 108 % of control | 114 % of control | 111 % of control | 118 % of control | 113 % of control | 105 % of control | 142 % of control |
| C#Cc1cc(Nc2ncnc3cc(OC)c(OC)cc23)ccc1Cl [Compound 45] | 122 % of control | 136 % of control | 70 % of control | 79 % of control | 103 % of control | 81 % of control | 101 % of control | 109 % of control | 81 % of control | 92 % of control | 107 % of control | 117 % of control | 91 % of control | 99 % of control | 115 % of control | 110 % of control | 101 % of control | 132 % of control | 111 % of control | 127 % of control |
